Read-outs that look alike come from different tables or passages of the source.
Columns and labels:
Assay type in all cases: cell-based
[1] = biological target: 5-HT2A serotoninergic receptors (Homo sapiens, UniProt P28223); assay: Cellular functional assay, 5-HT2A serotoninergic receptors
Experimental: (§1) The results are expressed as a percent of control specific agonist response ((measured specific response/control specific agonist response)×100) obtained in the presence of the test compounds.
(§2) The EC50 values (concentration producing a half-maximal specific response) and IC50 values (concentration causing a half-maximal inhibition of the control specific agonist response) were determined by non-linear regression analysis of the concentration-response curves generated with mean replicate values using Hill equation curve fitting (Y=D+[(A−D)/(1+(C/C50)nH)], where Y=specific response, D=minimum specific response, A=maximum specific response, C=compound concentration, and C50=EC50 or IC50, and nH=slope factor).
(§3) For the antagonists, the apparent dissociation constants (Kb) were calculated using the modified Cheng Prusoff equation (Kb=IC50/(1+(A/EC50A)), where A=concentration of reference agonist in the assay, and EC50A=EC50 value of the reference agonist).

[2] = biological target: 5-HT7 serotoninergic receptors (Homo sapiens, UniProt P34969); assay: Cellular functional assay, 5-HT7 serotoninergic receptors; settings: for 5-HT7 ag [%]: agonist mode, percent of control specific agonist response; for Kb: apparent dissociation constant, modified Cheng Prusoff equation, read-out: 5-HT7 antag Kb
Experimental: as §1
as §2, with “factor). This analysis was performed using a software developed at Cerep (Hill software) and validated by comparison with data generated by the commercial software SigmaPlot® 4.0 for Windows® (© 1997 by SPSS Inc.).” for “factor).”
as §3

[3] = biological target: D3 dopaminergic receptors (Homo sapiens, UniProt P35462); assay: Cellular functional assay, D3 dopaminergic receptors; settings: for D3 ag [%]: agonism, percent of control specific agonist response (0.3 μM dopamine for control); for D3 ag [%] / D3 antag [%]: D3 (h), CHO cells; for D3 antag [%]: antagonism, stimulus dopamine (10 nM)
Experimental: as §1
as §2, with “factor). This analysis was performed using a software developed at Cerep (Hill software) and validated by comparison with data generated by the commercial software SigmaPlot® 4.0 for Windows® (© 1997 by SPSS Inc.).” for “factor).”
as §3

[4] = agonist mode, percent of control specific agonist response

5-HT2A serotoninergic receptors, sequence (P28223 whole entry): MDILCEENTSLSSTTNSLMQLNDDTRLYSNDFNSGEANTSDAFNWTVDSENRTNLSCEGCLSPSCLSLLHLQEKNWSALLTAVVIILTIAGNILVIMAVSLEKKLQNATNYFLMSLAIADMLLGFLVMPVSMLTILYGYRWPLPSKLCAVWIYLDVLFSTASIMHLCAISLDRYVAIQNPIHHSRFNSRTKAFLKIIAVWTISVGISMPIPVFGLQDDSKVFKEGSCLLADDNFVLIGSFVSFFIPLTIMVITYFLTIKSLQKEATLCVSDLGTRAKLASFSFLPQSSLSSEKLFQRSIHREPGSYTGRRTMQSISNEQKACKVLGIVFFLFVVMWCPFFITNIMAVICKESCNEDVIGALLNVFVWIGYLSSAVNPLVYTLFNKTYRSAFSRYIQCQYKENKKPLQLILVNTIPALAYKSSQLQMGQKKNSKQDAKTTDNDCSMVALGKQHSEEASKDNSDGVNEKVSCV
D3 dopaminergic receptors, sequence (P35462 whole entry): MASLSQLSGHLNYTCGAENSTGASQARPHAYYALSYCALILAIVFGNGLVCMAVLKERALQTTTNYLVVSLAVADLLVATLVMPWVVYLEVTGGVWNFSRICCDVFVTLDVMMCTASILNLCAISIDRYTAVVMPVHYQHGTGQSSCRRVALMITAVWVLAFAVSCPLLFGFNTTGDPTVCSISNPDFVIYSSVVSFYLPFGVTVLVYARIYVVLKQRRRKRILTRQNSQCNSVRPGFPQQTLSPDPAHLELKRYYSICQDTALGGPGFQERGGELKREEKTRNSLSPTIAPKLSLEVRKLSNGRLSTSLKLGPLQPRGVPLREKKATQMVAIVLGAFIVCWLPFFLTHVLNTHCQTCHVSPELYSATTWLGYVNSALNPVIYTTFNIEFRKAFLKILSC
5-HT7 serotoninergic receptors, sequence (P34969 whole entry): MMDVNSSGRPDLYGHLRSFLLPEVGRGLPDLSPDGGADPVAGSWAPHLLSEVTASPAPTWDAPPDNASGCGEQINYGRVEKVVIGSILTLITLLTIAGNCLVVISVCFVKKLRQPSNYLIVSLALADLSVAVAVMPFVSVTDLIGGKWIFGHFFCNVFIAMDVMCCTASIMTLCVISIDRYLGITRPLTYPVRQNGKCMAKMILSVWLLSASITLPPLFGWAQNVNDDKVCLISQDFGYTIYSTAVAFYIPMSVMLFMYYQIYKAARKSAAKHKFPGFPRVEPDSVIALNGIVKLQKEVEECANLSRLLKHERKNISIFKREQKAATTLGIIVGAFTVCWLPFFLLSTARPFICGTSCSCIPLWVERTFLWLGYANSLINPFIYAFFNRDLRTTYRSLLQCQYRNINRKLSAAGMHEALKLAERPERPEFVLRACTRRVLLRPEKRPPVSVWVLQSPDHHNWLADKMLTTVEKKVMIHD

| Molecule | 5-HT2A ag [%] [1] | 5-HT7 ag [%] [2] | D3 ag [%] [3] | D3 antag [%] [3] | 5-HT2A ag [%] [1, 4] | Kb [2] | Kb ([3]; apparent dissociation constant, modified Cheng Prusoff equation, read-out: D3 antag Kb) | Kb ([1]; apparent dissociation constant, modified Cheng Prusoff equation, read-out: 5-HT2A antag Kb) | 5-HT7 antag [%] ([2]; antagonist mode) |
| --- | --- | --- | --- | --- | --- | --- | --- | --- | --- |
| O=S(=O)(N[C@H]1CCN(CCCc2noc3cc(F)ccc23)C1)c1cc2ccccc2s1 [Compound 197, N-[(3S)-1-[3-(6-Fluoro-1,2-benzoxazol-3-yl)propyl]pyrrolidin-3-yl]benzo-thiophene-2-sulphonamide] | 1% | 0% | – | – | – | – | – | – | – |
| Cc1c(S(=O)(=O)N[C@@H]2CCN(CCCc3noc4cc(F)ccc34)C2)sc2ccc(F)cc12 [Compound 202, 5-Fluoro-N-[(3R)-1-[3-(6-fluoro-1,2-benzoxazol-3-yl)propyl]pyrrolidin-3-yl]-3-methyl-benzothiophene-2-sulphonamide] | – | −3% | −5% | 81% | 0% | – | – | – | – |
| O=S(=O)(NCC1CCN(CCCc2noc3cc(F)ccc23)C1)c1cccc2ccccc12 (stereo not drawn) [Compound 239, N-[[1-[3-(6-Fluoro-1,2-benzoxazol-3-yl)propyl]pyrrolidin-3-yl]methyl]naphthalene-1-sulphonamide] | −2% | 1% | – | – | – | – | – | – | – |
| O=S(=O)(NC1CCN(CCCc2noc3cc(F)ccc23)C1)c1cc2ccc(F)cc2s1 (stereo not drawn) [Compound 234, 6-Fluoro-N-[1-[3-(6-fluoro-1,2-benzoxazol-3-yl)propyl]pyrrolidin-3-yl]benzothiophene-2-sulphonamide] | 1% | 0% | −14% | 89% | – | – | – | – | – |
| Cc1c(S(=O)(=O)N[C@H]2CCN(CCCc3noc4cc(F)ccc34)C2)sc2ccc(Cl)cc12 [Compound 205, 5-Chloro-N-[(3S)-1-[3-(6-fluoro-1,2-benzoxazol-3-yl)propyl]pyrrolidin-3-yl]-3-methyl-benzothiophene-2-sulphonamide] | – | −1% | 7% | 95% | −3% | – | – | – | – |
| O=S(=O)(NC1CCN(CCCc2noc3cc(F)ccc23)CC1)c1cccc2ccccc12 [Compound 34, N-[1-[3-(6-Fluoro-1,2-benzoxazol-3-yl)propyl]-4-piperidine]-naphthalene-1-sulphonamide] | −1% | −1% | – | – | – | 0.077 nM | – | – | – |
| O=S(=O)(N[C@H]1CCN(CCCc2noc3cc(F)ccc23)C1)c1cc2ccc(Cl)cc2s1 [Compound 199, 6-Chloro-N-[(3S)-1-[3-(6-fluoro-1,2-benzoxazol-3-yl)propyl]pyrrolidin-3-yl]benzothiophene-2-sulphonamide] | – | 1% | – | – | −2% | – | – | – | – |
| O=S(=O)(N[C@@H]1CCN(CCCc2noc3cc(F)ccc23)C1)c1cc2ccccc2o1 [Compound 214, N-[(3R)-1-[3-(6-Fluoro-1,2-benzoxazol-3-yl)propyl]pyrrolidin-3-yl]benzo-furan-2-sulphonamide] | – | −1% | – | 117% | −2% | – | – | – | – |
| O=S(=O)(N[C@@H]1CCN(CCCc2noc3cc(F)ccc23)C1)c1cc2ccc(Cl)cc2s1 [Compound 198, 6-Chloro-N-[(3R)-1-[3-(6-fluoro-1,2-benzoxazol-3-yl)propyl]pyrrolidin-3-yl]benzothiophene-2-sulphonamide] | – | 1% | −17% | 97% | −3% | – | – | – | – |
| O=S(=O)(N[C@@H]1CCN(CCCc2noc3cc(F)ccc23)C1)c1ccc2cc(Cl)ccc2c1 [Compound 200, 6-Chloro-N-[(3R)-1-[3-(6-fluoro-1,2-benzoxazol-3-yl)propyl]pyrrolidin-3-yl]naphthalene-2-sulphonamide] | – | −1% | −1% | 93% | 0% | – | – | – | – |
| O=S(=O)(NC1CCN(CCCc2noc3cc(F)ccc23)C1)c1ccc2ccccc2c1 (stereo not drawn) [Compound 21, N-[1-[3-(6-Fluoro-1,2-benzoxazol-3-yl)propyl]pyrrolidin-3-yl]naphthalene-2-sulphonamide] | 2% | −1% | −8% | 83% | – | 1.7 nM | 7.3 nM | 8.3 nM | – |
| O=S(=O)(NC1CCN(CCCc2noc3cc(F)ccc23)C1)c1ccc2cc(Cl)ccc2c1 (stereo not drawn) [Compound 23, 6-Chloro-N-[1-[3-(6-fluoro-1,2-benzoxazol-3-yl)propyl]pyrrolidin-3-yl]naphthalene-2-sulphonamide] | – | −2% | −10% | 68% | −2% | – | – | – | – |
| O=S(=O)(N[C@@H]1CCN(CCCc2noc3cc(F)ccc23)C1)c1ccc2ccccc2c1 [Compound 206, N-[(3R)-1-[3-(6-Fluoro-1,2-benzoxazol-3-yl)propyl]pyrrolidin-3-yl]naphthalene-2-sulphonamide] | −1% | −1% | 3% | 77% | – | – | – | – | – |
| COc1ccc2cc(S(=O)(=O)N[C@H]3CCN(CCCc4noc5cc(F)ccc45)C3)ccc2c1 [Compound 231, N-[(3S)-1-[3-(6-Fluoro-1,2-benzoxazol-3-yl)propyl]pyrrolidin-3-yl]-6-methoxy-naphthalene-2-sulphonamide] | – | – | −6% | 54% | 0% | – | – | – | – |
| O=S(=O)(NC1CCN(CCCc2noc3cc(F)ccc23)C1)c1cc2ccccc2o1 (stereo not drawn) [Compound 216, N-[1-[3-(6-Fluoro-1,2-benzoxazol-3-yl)propyl]pyrrolidin-3-yl]benzofuran-2-sulphonamide] | – | −5% | – | – | −2% | – | – | – | – |
| Cc1ccc2sc(S(=O)(=O)NC3CCN(CCCc4noc5cc(F)ccc45)C3)cc2c1 (stereo not drawn) [Compound 226, N-[1-[3-(6-Fluoro-1,2-benzoxazol-3-yl)propyl]pyrrolidin-3-yl]-5-methylbenzothiophene-2-sulphonamide] | – | −2% | −26% | 107% | −1% | – | – | – | – |
| Cc1c(S(=O)(=O)N[C@@H]2CCN(CCCc3noc4cc(F)ccc34)C2)sc2ccc(Cl)cc12 [Compound 204, 5-Chloro-N-[(3R)-1-[3-(6-fluoro-1,2-benzoxazol-3-yl)propyl]pyrrolidin-3-yl]-3-methyl-benzothiophene-2-sulphonamide] | – | – | −8% | 109% | −1% | – | – | – | – |
| O=S(=O)(N[C@H]1CCN(CCCc2noc3cc(F)ccc23)C1)c1cc2ccccc2o1 [Compound 215, N-[(3S)-1-[3-(6-Fluoro-1,2-benzoxazol-3-yl)propyl]pyrrolidin-3-yl]benzo-furan-2-sulphonamide] | – | 0% | – | – | −2% | – | – | – | – |
| O=S(=O)(NCC1CCN(CCCc2noc3cc(F)ccc23)C1)c1ccc2ccccc2c1 (stereo not drawn) [Compound 240, N-[[1-[3-(6-Fluoro-1,2-benzoxazol-3-yl)propyl]pyrrolidin-3-yl]methyl]-naphthalene-2-sulphonamide] | −1% | 0% | – | – | – | – | – | – | – |
| N-[1-[3-(6-Fluoro-1,2-benzoxazol-3-yl)propyl]pyrrolidin-3-yl]-1-methyl-imidazole-4-sulphonamide [Compound 217] | – | 5% | – | – | −2% | – | – | – | 74% |

Source: patent US20140135310A1, “SULPHONAMIDE DERIVATIVES OF ALICYCLIC AMINES FOR THE TREATMENT OF CENTRAL NERVOUS SYSTEM DISEASES” (Adamed Sp. z o.o., priority 2011, published 2014)
